One may read the pIC50 as the negative decadic logarithm of the IC50, by convention in mol/L.

Molecules are shown by their SMILES. pIC50: −log10 of the molar value.

The target of one assay is T1, stromelysin (Homo sapiens, UniProt P08254).
T1 construct: made in house; host or cells: E. coli
Briefly: Determination of Stromelysin Inhibition (cleavage of thiopeptide ester substrate, DTNB, 405 nm). The assay is classed as biochemical. To be noted: Table 1; recombinant truncated human stromelysin, pH 6.5, 30 minute assay at ambient temperature. How it is done: The efficacy of the compounds of this invention as matrix metalloproteinase inhibitors was determined by measuring the inhibition of stromelysin. The inhibition of stromelysin by the compounds of this invention was determined as follows: Recombinant truncated stromelysin (human sequence) produced in E. coli was prepared by expression and purification of the protein as described by Ye et al. (Biochemistry, 1992, 31, 11231-11235, which is incorporated herein by reference). The enzyme was assayed by its cleavage of the thiopeptide ester substrate Ac-Pro-Leu-Gly-(2-mercapto-4-methyl-pentanoyl)-Leu-Gly-OEt as described by Weingarten and Feder (Anal. Biochem., 1985, 147, 437-440 (1985), which is incorporated herein by reference) as a substrate of vertebrate collagenase. The reported conditions were modified to allow assays to be carried out in a microtiter plate. Upon hydrolysis of the thioester bond, the released thiol group reacted rapidly with 5,5'-dithio-bis(2-nitrobenzoic acid) (DTNB) to produce a yellow color which was measured by a microtiter plate reader set at 405 nm. The rates of cleavage of the substrate by stromelysin in the presence or absence of inhibitors were measured in a 30 minute assay at ambient temperature. Solutions of the compounds in DMSO were prepared, and these were diluted at various concentrations into the assay buffer (50 mM MES/NaOH pH 6.5 with 10 mM CaCl2 and 0.2% Pluronic F-68), which was also used for dilution of the enzyme and substrate. The potency of the compounds (IC50) was calculated from the inhibition/inhibitor concentration data.

The target in a further assay is T2, gelatinase-A (MMP-2) (Homo sapiens, UniProt P08253).
T2 construct: Recombinant active gelatinase-A (MMP-2) is purchased from Oncogene Research; purchased Oncogene Research
T2 sequence (P08253 110-660): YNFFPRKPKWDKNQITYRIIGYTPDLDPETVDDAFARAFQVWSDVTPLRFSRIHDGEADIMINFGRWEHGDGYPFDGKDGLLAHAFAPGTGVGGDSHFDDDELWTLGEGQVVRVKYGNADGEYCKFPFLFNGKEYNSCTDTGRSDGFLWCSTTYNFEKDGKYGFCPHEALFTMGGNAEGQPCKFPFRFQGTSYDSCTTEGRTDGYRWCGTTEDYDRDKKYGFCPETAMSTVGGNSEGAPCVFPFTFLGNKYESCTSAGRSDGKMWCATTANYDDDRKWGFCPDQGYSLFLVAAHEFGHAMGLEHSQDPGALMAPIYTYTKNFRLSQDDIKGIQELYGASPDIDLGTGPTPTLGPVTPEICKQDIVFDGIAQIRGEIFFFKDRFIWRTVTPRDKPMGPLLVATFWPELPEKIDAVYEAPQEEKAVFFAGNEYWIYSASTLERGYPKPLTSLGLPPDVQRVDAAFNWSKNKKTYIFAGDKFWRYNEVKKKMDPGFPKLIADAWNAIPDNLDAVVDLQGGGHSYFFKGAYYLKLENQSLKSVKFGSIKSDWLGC
The assay is described as follows: Inhibition of Gelatinase A (MMP-2), cleavage of a fluorescent substrate. The assay is classed as biochemical. To be noted: Table 2; recombinant active gelatinase-A (MMP-2), pH 7.4, 40 min assay at ambient temperature. How it is done: The efficacy of the compounds of this invention as matrix metalloproteinase inhibitors was also determined by measuring inhibition as outlined below for Gelatinase A, a member of this family of enzymes. Recombinant active gelatinase-A (MMP-2) is purchased from Oncogene Research. The enzyme is assayed by its cleavage of a fluorescent […] 150 uL volume in a microfluor plate as described in Science 1990, 247, 954-958. Upon cleavage of the substrate, the fluorescence of the EDANS group is increased 30-fold, and this increase is monitored using a f-max (Molecular Devices) fluorescent plate reader (ex: 335 nm; em: 485 nm). The rates of cleavage of the substrate by gelatinase-A in the presence or absence of inhibitors are measured in a 40 min assay at ambient temperature. Stock solutions of the compounds in DMSO are prepared, and these solutions are diluted into the assay buffer (50 mM Tris HCl, pH 7.4, with 150 mM NaCl and 10 mM CaCl2), which is also used for dilution of the enzyme and substrate.

T1 sequence (P08254 100-272 limits assumed): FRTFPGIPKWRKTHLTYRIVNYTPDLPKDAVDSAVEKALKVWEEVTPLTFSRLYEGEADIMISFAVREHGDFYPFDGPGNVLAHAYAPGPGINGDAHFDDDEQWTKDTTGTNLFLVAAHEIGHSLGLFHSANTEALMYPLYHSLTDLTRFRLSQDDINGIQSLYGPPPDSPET

In the case of `CC(CCS(=O)(=O)c1ccc(Oc2ccccc2)cc1)N(O)C=O` (racemic) [Example 120, (±)-N-hydroxy-N-(1-methyl-3-((4-phenoxyphenyl)sulfonyl)propyl)formamide], at stromelysin, the pIC50 was 8.37.

`CC(CCS(=O)(=O)c1ccc(Oc2ccc(OC(F)(F)F)cc2)cc1)N(O)C=O` (racemic) [Example 121, (±)-N-hydroxy-N-(1-methyl-3-((4-(4-(trifluoromethoxy)phenoxy)phenyl)-sulfonyl)propyl)formamide]: on stromelysin, the pIC50 was 6.89.

On to `O=CN(O)C1CCCCC1CS(=O)(=O)c1ccc(Oc2ccc(F)cc2)cc1` (racemic) [Example 134, (±)-2-(((4-(4-fluorophenoxy)phenyl)sulfonyl)methyl)cyclohexyl(hydroxy)formamide], for which the pIC50 at gelatinase-A (MMP-2) was 6.92.

Consider `CC1(C)NC(=O)N(C[C@@H](CCS(=O)(=O)c2ccc(Oc3ccccc3)cc2)N(O)C=O)C1=O` [Example 123, (R)-N-(1-((4,4-dimethyl-2,5-dioxo-1-imidazolidinyl)methyl)-3-((4-phenoxyphenyl)sulfonyl)propyl)-N-hydroxyformamide], for which, at stromelysin, the pIC50 was 6.57.

`CC(C)(CN(O)C=O)CS(=O)(=O)c1ccc(Oc2ccccc2)cc1` [Example 129, 2,2-dimethyl-3-((4-phenoxyphenyl)sulfonyl)propyl(hydroxy)formamide]: the pIC50 at gelatinase-A (MMP-2) was 8.37.

As to `CC1(C)NC(=O)N(C[C@@H](CCS(=O)(=O)c2ccc(Oc3ccc(Cl)cc3)cc2)N(O)C=O)C1=O` [Example 130], the pIC50 on gelatinase-A (MMP-2) is 7.92.

With `CC(C)(CN(O)C=O)CS(=O)(=O)c1ccc(Oc2ccc(OC(F)(F)F)cc2)cc1` [Example 131, 2,2-dimethyl-3-((4-(4-(trifluoromethoxy)phenoxy)phenyl)sulfonyl)propyl(hydroxy)formamide], the pIC50 on gelatinase-A (MMP-2) was 8.31.

Consider `CN1C(=O)N(C[C@@H](CCS(=O)(=O)c2ccc(Oc3ccc(F)cc3)cc2)N(O)C=O)C(=O)C1(C)C` [Example 132, (1R)-3-((4-(4-fluorophenoxy)phenyl)sulfonyl)-1-((3,4,4-trimethyl-2,5-dioxo-1-imidazolidinyl)methyl)propyl(hydroxy)formamide], for which the pIC50 at gelatinase-A (MMP-2) is 7.82.

In the case of `O=CN(O)CC1(CS(=O)(=O)c2ccc(Oc3ccc(OC(F)(F)F)cc3)cc2)COCOC1` [Example 135, Hydroxy((5-(((4-(4-(trifluoromethoxy)phenoxy)phenyl)sulfonyl)methyl)-1,3-dioxan-5-yl)methyl)formamide], the pIC50 at gelatinase-A (MMP-2) was 9.22.

The record behind these values is patent US6235786A, “Reverse hydroxamate inhibitors of matrix metalloproteinases” (Abbott Laboratories, priority 2000, dated 2001).
